{"source": "patent US6083931A", "about": "“Method of inhibiting cancer metastasis” (NGK Insulators, Ltd., priority 1997, dated 2000)", "key": {"[1]": {"tested_on": "rat AH66F cells adhering to mesentery cells (M-cells)", "assay": "Inhibition of adhesion of rat AH66F cancer cells to rat mesentery cells (M-cells)", "type": "cell-based", "conditions": "average over four wells", "source_text": "The present inventors employed, as a model system for the measurement of the metastasis-inhibiting action upon the cancer cells, a system in which rat ascites hepatoma as extremely malignant cancer cells were adhered to mesenteries of a rat. They also employed a cell system as a simpler technique. As the former cancer cells, AH66F-cells were used, whereas M-cells were used as the latter mesentery cells.\n(§1) Mesentery cells (M-cells) originating from a rat was cultivated inside a cell-cultivating well plate with a Dulbecco's Modification of Eagle's Medium (DMEM) containing 5% fetal calf serum (FCS). When the cells spread over the entire face of the well, the cells were washed with DMEM containing no FC3. Further, the cells were cultivated with DMEM containing 10 μg/ml or 100 μg/ml of sialic acid at 37° C. After 45 minutes passed, the well was washed with DMEM, and rat AH66F cells ([…]) and sialic acid at a concentration shown in FIG. 1 were added together with DMEM. […] Then, the number of the cells was measured by a haemacytometer under a microscope (the number of non-adhered cells).\n(§2) As a control, only cancer cells were cultivated, the same operations as mentioned above were effected, and the number of the cells were measured (the number of cells in control).\n(§3) The adhesive rate (%) of the cancer cells was calculated according to the following calculating formula. […]"}, "AH66F cancer cells": {"tested_on": "AH66F cancer cells", "assay": "Life-prolonging effect upon rats with AH66F cancer cells", "type": "in vivo, rat", "conditions": "for Survival dates: peritoneally administered, control 7.3 ± 0.3; for Life-prolonging percentage: vs control group", "description": "AH66F cancer cells (1×10^6 cells) were each peritoneally administered to Donryu male rats (six week age, 100-120 g, each group--6 rats). Immediately thereafter, a solution of sialic acid (dosage: 10 mg/kg and 100 mg/kg) or physiological saline solution was peritoneally administered in a dosage of 0.5 ml (control group). Then, after sialic acid or physiological saline solution was peritoneally administered over 2 days, survival dates of the rats were observed.\nThe life-prolonging percentage was calculated according to the following formula. Life-prolonging percentage=[(survival dates of treated group)-(survival dates of control group)/(survival dates of control group]×100"}, "[2]": {"tested_on": "AH66F cells adhering to M-cells", "assay": "Inhibition of adhesion of AH66F cells to M-cells under coexistence of anti-LFA-1 antibody", "type": "cell-based, rat", "description": "as §1, with “DMEM. The mixture was cultivated at 37° C. for one hour. After the cultivation, the mixture was stirred for 30 second, and a cultivation supernatant liquid was taken into a sample tube. Into each well was added 200 μl of fresh DMEM, and washing was similarly carried out under stirring for 15 seconds.” for “DMEM.”\nas §2, §3"}, "[3]": {"assay": "Acute toxicity test, intravenous, male Wister-strain rats", "conditions": "rat, in vivo, intravenous administration, sodium salts, pH 7.0"}}, "note": "Where a name gives a salt, the structure may show the parent alone."}
{"compound": "CC(=O)N[C@H]1[C@H]([C@H](O)[C@H](O)CO)OC(O)(C(=O)O)C[C@@H]1O", "note": "(stereo partly drawn) [sialic acid, N-acetylneuraminic acid]", "values": [{"measurement": "inhibition at 10 µg/mL", "setting": "[1]; 10 μg/ml sialic acid", "value": 27, "unit": "%"}, {"measurement": "inhibition at 100 µg/mL", "setting": "[1]; 100 μg/ml sialic acid", "value": 31, "unit": "%"}, {"measurement": "life-prolonging effect, times that of control group", "setting": "AH66F cancer cells; 10 mg/Kg", "value": 1.6, "unit": "times"}, {"measurement": "Survival dates", "setting": "AH66F cancer cells; 10 mg/Kg × 3 days", "value": "11.5 ± 0.4"}, {"measurement": "Life-prolonging percentage", "setting": "AH66F cancer cells; 10 mg/Kg × 3 days", "value": 58, "unit": "%"}, {"measurement": "life-prolonging effect, times that of control group", "setting": "AH66F cancer cells; 100 mg/Kg", "value": 1.8, "unit": "times"}, {"measurement": "Survival dates", "setting": "AH66F cancer cells; 100 mg/Kg × 3 days", "value": "13.4 ± 0.4"}, {"measurement": "Life-prolonging percentage", "setting": "AH66F cancer cells; 100 mg/Kg × 3 days", "value": 84, "unit": "%"}, {"measurement": "inhibition at 100 µg/mL", "setting": "[2]; Rattus norvegicus, 100 μg/ml sialic acid under coexistence of 10 μg/ml anti-LFA-1 antibody", "value": 7, "unit": "%"}, {"measurement": "synergistic effect on adhesion inhibition (in words)", "setting": "[2]; sialic acid with anti-LFA-1 antibody", "value": "synergistic effect"}]}
{"compound": "CC(=O)N[C@H]1[C@H]([C@H](O)[C@H](O)CO)OC(O)(C(=O)O)C[C@@H]1O", "note": "(stereo partly drawn) [sodium salts of sialic acid]", "values": [{"measurement": "LD50", "setting": "[3]", "value": "≥ 2000", "unit": "mg/kg"}]}
{"compound": "CC(=O)NC1C(O)CC(OC(CO)C(O)C2OC(OC(CO)C(O)C3OC(O)(C(=O)O)CC(O)C3NC(C)=O)(C(=O)O)CC(O)C2NC(C)=O)(C(=O)O)OC1C(O)C(O)CO", "note": "(stereo not drawn) [trimer]", "values": [{"measurement": "LD50", "setting": "[3]", "value": "≥ 2000", "unit": "mg/kg"}]}
